From patent US10000452B1, “Quinolone-based compounds, formulations, and uses thereof” (University of South Florida, priority 2016, dated 2018)
≈ marks a conversion by molar mass, not a printed value. Like-named read-outs stand apart in the source and are kept apart here.

What was measured:
[1] = test system: malarial strain TM90-C2B (mefloquine, chloroquine, atovaquone, and pyrimethamine-resistant); test: microbe, parasite or virus in culture; type: cell-based, P. falciparum; details: for EC50: Plasmodium falciparum, TM90, read-out: EC50 TM90-C2B (nM); for RI: RI = EC50 TM90-C2B/EC50 W2
Description: Ideally, the RI of a compound should lie between 0.3 and 3.0 in order to avoid rapidly inducing resistance in the parasite. […]

[2] = test system: malarial strain W2 (pyrimethamine and chloroquine-resistant); test: in vitro antimalarial activity against multidrug resistant strain W2; type: cell-based, P. falciparum; details: Plasmodium falciparum, read-out: EC50 W2 (nM)
J774 mammalian cells = test: cytotoxicity to J774 cells; type: cell-based; details: Mus musculus
Method: This allowed a simplified method for comparing the different assays being simultaneously run. Additionally, each compound was also tested for cytotoxicity using mammalian J774 cell lines in a 96-well plate format.^12-14, 16

[3] = test system: P. berghei sporozoites expressing luciferase; test: in vitro liver stage activity, luciferase sporozoites infecting HEPG2 hepatoma cells; type: cell-based; details: Plasmodium berghei
Pb-infected mice = test: in vivo efficacy scouting assay against blood stages; set-up: species or system P. berghei; mice; details: for % Inhibition Day 6 PI: vs untreated animals
Method: The screening involved a single oral 50 mg/kg dose 1 day post infection (PI) and an assessment of parasitemia on days 3 PI and 6 PI (Table 6).
The screening was performed by treating two infected mice with a single 50 mg/kg oral dose of test compound suspended in PEG400 on day 1 postexposure (PE) followed by assessing parasitemia on days 3 and 6 PE.

[4] = aqueous solubility (LC/MS- or HPLC-based assay); type: physicochemical
Description: (§1) Furthermore, to profile the properties of the piperazinyl-4(1H)-quinolones, and to identify potential limitations, aqueous solubility and lipophilicity log D were experimentally determined via LC/MS-based assays as described by the Manetsch laboratory previously^8,10,31,32 (Tables 9-12). Encouragingly, the piperazinyl-4(1H)-quinolones were much more soluble than the previously described phenoxyethoxy-4(1H)-quinolone analogues.^19 As expected, the solubility of all compounds was affected by pH, with better solubility under more acidic conditions.
(§2) In parallel to testing the compounds for in vitro antimalarial activity, a limited structure-property relationship (SPR) study focusing on log D and aqueous solubility was conducted to assess potential physiochemical liabilities (FIG. 22). […] For these reasons, physicochemical properties were not strongly considered as selection criteria for in vivo efficacy studies.

[5] = lipophilicity log D at pH 7.4; type: physicochemical; details: octanol/water
Description: as §1, §2

[6] = aqueous medium, pH 2, simulated gastric fluid, pH 2.0, read-out: Solubility pH 2.0
[7] = aqueous medium, pH 6.5, aqueous buffer, pH 6.5, read-out: Solubility pH 6.5
[8] = aqueous solution (buffer not named), pH 2, simulated gastric fluid, pH 2.0, read-out: Solubility pH 2.0
[9] = aqueous solution (buffer not named), pH 6.5, aqueous buffer, pH 6.5, read-out: Solubility pH 6.5
[10] = single oral 50 mg/kg dose 1 day PI
[11] = aqueous solution, pH 2, simulated gastric fluid, pH 2.0, read-out: Solubility pH 2.0
[12] = aqueous solution, pH 6.5, aqueous buffer, pH 6.5, read-out: Solubility pH 6.5

Structure (SMILES)	EC50 [1]	RI [1]	EC50 [2]	EC50 (J774 mammalian cells; J774, read-out: EC50 J774)	EC50 ([3]; HEPG2 cells)	% inhibition on day 6 PE (Pb-infected mice; Example 2: two mice, single 50 mg/kg oral dose in PEG400 on day 1 PE)	solubility [4, 6]	solubility [4, 7]	EC50 (J774 mammalian cells; J774, read-out: EC50 J774 (μM))	chromatographic logD [5]	solubility [4, 8]	solubility [4, 9]	activities in these scout assays (Pb-infected mice; single oral 50 mg/kg dose 1 day PI, result in words)	% Inhibition Day 6 PI (Pb-infected mice; [10])	solubility [4, 11]	solubility [4, 12]	EC50 ([3]; HepG2, text values printed in pM)
CCCCc1cc2c(=O)c(CC)c[nH]c2cc1OCCOc1ccccc1 [Compound 6ae, 6-Butyl-3-ethyl-7-(2-phenoxyethoxy)quinolin-4(1H)-one]	1.92 nM	4.36	0.44 nM	0.36 µM	2650 pM	lack of significant parasitemia reduction	–	–	–	–	–	–	–	–	–	–	–
COC(=O)c1c[nH]c2cc(CCN3CCN(c4ccccc4)CC3)ccc2c1=O [Compound 8ac, Methyl 4-oxo-7-(2-(4-phenylpiperazin-1-yl)ethyl)-1,4-dihydroquinoline-3-carboxylate]	1500 nM	58.6	25.6 nM	–	–	–	≥ 80 µM	≥ 80 µM	> 20 µM	5.11	–	–	–	–	–	–	–
COC(=O)c1c[nH]c2cc(CCN3CCN(Cc4ccccc4)CC3)ccc2c1=O [Compound 8ad, Methyl 7-(2-(4-benzylpiperazin-1-yl)ethyl)-4-oxo-1,4-dihydroquinoline-3-carboxylate]	6170 nM	–	116 nM	–	157000 pM	–	≥ 80 µM	≥ 80 µM	> 20 µM	1.72	–	–	–	–	–	–	–
COC(=O)c1c[nH]c2cc(CCN3CCN(Cc4ccc(OC)cc4)CC3)ccc2c1=O [Compound 8ae, Methyl 7-(2-(4-(4-methoxybenzyl)piperazin-1-yl)ethyl)-4-oxo-1,4-dihydroquinoline-3-carboxylate]	–	>495	11.6 nM	–	–	–	≥ 80 µM	≥ 80 µM	> 20 µM	1.68	–	–	–	–	–	–	–
COC(=O)c1c[nH]c2ccc(CN3CCN(c4ccccc4)CC3)cc2c1=O [Compound 8af, Methyl 4-oxo-6-((4-phenylpiperazin-1-yl)methyl)-1,4-dihydroquinoline-3-carboxylate]	3200 nM	21.2	151 nM	–	90500 pM	–	–	–	> 20 µM	2.03	≥ 80 µM	20 to 39.9 µM (≈ 7.55 to 15.1 µg/mL)	–	–	–	–	–
COC(=O)c1c[nH]c2ccc(CN3CCN(c4ccc(F)cc4)CC3)cc2c1=O [Compound 8ah, Methyl 6-((4-(4-fluorophenyl)piperazin-1-yl)methyl)-4-oxo-1,4-dihydroquinoline-3-carboxylate]	2900 nM	27.4	106 nM	–	–	–	–	–	> 20 µM	2.17	≥ 80 µM	≥ 80 µM	–	–	–	–	–
COC(=O)c1c[nH]c2ccc(CN3CCN(c4ccc(C(F)(F)F)cc4)CC3)cc2c1=O [Compound 8ai, Methyl 4-oxo-6-((4-(4-(trifluoromethyl)phenyl)piperazin-1-yl)methyl)-1,4-dihydroquinoline-3-carboxylate]	2900 nM	64.2	45.2 nM	–	85000 pM	–	–	–	> 20 µM	3.01	≥ 80 µM	1 to 19.9 µM (≈ 0.445 to 8.86 µg/mL)	–	–	–	–	–
O=c1c(Cl)c[nH]c2cc(CN3CCN(c4ccc(F)cc4)CC3)ccc12 [Compound 8al, 3-Chloro-7-((4-(4-fluorophenyl)piperazin-1-yl)methyl)quinolin-4(1H)-one]	2290 nM	–	1060 nM	–	–	–	–	–	> 20 µM	2.57	≥ 80 µM	40 to 59.9 µM (≈ 14.9 to 22.3 µg/mL)	excellent activities	71.9%	–	–	–
Cc1cc(=O)c2ccc(CN3CCN(c4ccc(F)cc4)CC3)cc2[nH]1 [Compound 8am, 7-((4-(4-Fluorophenyl)piperazin-1-yl)methyl)-2-methylquinolin-4(1H)-one]	1450 nM	1.19	1220 nM	–	–	–	–	–	> 20 µM	2.44	≥ 80 µM	≥ 80 µM	–	–	–	–	–
COC(=O)c1c[nH]c2cc(N3CCN(c4ccccc4)CC3)c(C)cc2c1=O [Compound 8c, Methyl 6-methyl-4-oxo-7-(4-phenylpiperazin-1-yl)-1,4-dihydroquinoline-3-carboxylate]	1110 nM	–	45.5 nM	–	–	–	≥ 80 µM	40 to 59.9 µM (≈ 15.1 to 22.6 µg/mL)	16.7 µM	2.31	–	–	–	little to moderate protection	–	–	–
COC(=O)c1c[nH]c2cc(N3CCN(c4ccccc4)CC3)c(OC)cc2c1=O [Compound 8d, Methyl 6-methoxy-4-oxo-7-(4-phenylpiperazin-1-yl)-1,4-dihydroquinoline-3-carboxylate]	–	–	37.2 nM	–	–	–	≥ 80 µM	1 to 19.9 µM (≈ 0.393 to 7.83 µg/mL)	16.8 µM	2.64	–	–	–	little to moderate protection	–	–	–
COC(=O)c1c[nH]c2cc(N3CCN(c4ccc(OC)cc4)CC3)ccc2c1=O [Compound 8e, Methyl 7-(4-(4-methoxyphenyl)piperazin-1-yl)-4-oxo-1,4-dihydroquinoline-3-carboxylate]	154 nM	19.8	7.76 nM	–	–	–	–	–	> 20 µM	2.44	–	–	–	–	40 to 59.9 µM (≈ 15.7 to 23.6 µg/mL)	20 to 39.9 µM (≈ 7.87 to 15.7 µg/mL)	–
COC(=O)c1c[nH]c2cc(N3CCN(c4ccc(OC)cc4)CC3)c(OC)cc2c1=O [Compound 8f, Methyl 6-methoxy-7-(4-(4-methoxyphenyl)piperazin-1-yl)-4-oxo-1,4-dihydroquinoline-3-carboxylate]	1980 nM	46.2	42.9 nM	–	> 100000 pM	–	–	–	> 20 µM	2.48	–	–	–	–	60 to 79.9 µM (≈ 25.4 to 33.8 µg/mL)	20 to 39.9 µM (≈ 8.47 to 16.9 µg/mL)	–
COC(=O)c1c[nH]c2cc(N3CCN(Cc4ccccc4)CC3)c(OC)cc2c1=O [Compound 8h, Methyl 7-(4-benzylpiperazin-1-yl)-6-methoxy-4-oxo-1,4-dihydroquinoline-3-carboxylate]	–	–	63.5 nM	–	–	–	60 to 79.9 µM (≈ 24.4 to 32.6 µg/mL)	40 to 59.9 µM (≈ 16.3 to 24.4 µg/mL)	12.4 µM	2.03	–	–	–	–	–	–	–
COC(=O)c1c[nH]c2cc(N3CCN(Cc4ccc(OC)cc4)CC3)ccc2c1=O [Compound 8i, Methyl 7-(4-(4-methoxybenzyl)piperazin-1-yl)-4-oxo-1,4-dihydroquinoline-3-carboxylate]	1340 nM	67.3	19.9 nM	–	–	–	≥ 80 µM	40 to 59.9 µM (≈ 16.3 to 24.4 µg/mL)	–	2.08	–	–	–	–	–	–	–
COC(=O)c1c[nH]c2cc(CN3CCN(Cc4ccc5c(c4)OCO5)CC3)ccc2c1=O [Compound 8m, Methyl 7-((4-(benzo[d][1,3]dioxol-5-ylmethyl)piperazin-1-yl)methyl)-4-oxo-1,4-dihydroquinoline-3-carboxylate]	> 5740 nM	>36.6	157 nM	–	–	–	≥ 80 µM	≥ 80 µM	> 20 µM	0.87	–	–	–	–	–	–	–
COC(=O)c1c[nH]c2cc(CN3CCN(c4ccc(OC)cc4)CC3)ccc2c1=O [Compound 8n, Methyl 7-((4-(4-methoxyphenyl)piperazin-1-yl)methyl)-4-oxo-1,4-dihydroquinoline-3-carboxylate]	222 nM	–	3.56 nM	–	123 pM	–	–	–	–	2.11	–	–	–	little to moderate protection	≥ 80 µM	40 to 59.9 µM (≈ 16.3 to 24.4 µg/mL)	123 pM
COC(=O)c1c[nH]c2cc(CN3CCN(Cc4ccc(OC)cc4)CC3)c(C)cc2c1=O [Compound 8s, Methyl 7-((4-(4-methoxybenzyl)piperazin-1-yl)methyl)-6-methyl-4-oxo-1,4-dihydroquinoline-3-carboxylate]	1020 nM	426	2.4 nM	–	–	–	≥ 80 µM	≥ 80 µM	> 20 µM	2.03	–	–	–	little to moderate protection	–	–	–
COC(=O)c1c[nH]c2cc(CN3CCN(Cc4ccc(OC)cc4)CC3)c(OC)cc2c1=O [Compound 8y, Methyl 6-methoxy-7-((4-(4-methoxybenzyl)piperazin-1-yl)methyl)-4-oxo-1,4-dihydroquinoline-3-carboxylate]	2750 nM	–	9.97 nM	–	52400 pM	–	–	–	> 20 µM	–	–	–	–	little to moderate protection	–	–	–
